Reference: PubChem BioAssay (NCI)
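Growth conditions: 96-well plates. Treatment: test compound, 48 hours, 5 concentrations. Analysis: linear interpolation between bracketing concentrations; unreached endpoints set to highest concentration. GI50 marks 50% less growth. TGI: concentration producing complete growth inhibition.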

Assays:
Experiment in all cases: inhibition of tumour cell growth, NCI panel, 48 h; in the data active means GI50 below about 0.43 µM; inactive means the rest
786-0 renal = system: 786-0 renal
A498 renal = system: A498 renal
A549 NSCLC = system: A549 NSCLC
ACHN renal = system: ACHN renal
BT-549 breast = system: BT-549 breast
CAKI-1 renal = system: CAKI-1 renal
CCRF-CEM leukemia = system: CCRF-CEM leukemia
COLO 205 colon = system: COLO 205 colon
DU-145 prostate = system: DU-145 prostate
EKVX NSCLC = system: EKVX NSCLC
HCC-2998 colon = system: HCC-2998 colon
HCT-116 colon = system: HCT-116 colon
HCT-15 colon = system: HCT-15 colon
HL-60(TB) leukemia = system: HL-60(TB) leukemia
HOP-62 NSCLC = system: HOP-62 NSCLC
HOP-92 NSCLC = system: HOP-92 NSCLC
HS 578T breast = system: HS 578T breast
HT29 colon = system: HT29 colon
IGROV1 ovarian = system: IGROV1 ovarian
K-562 leukemia = system: K-562 leukemia
KM12 colon = system: KM12 colon
LOX IMVI melanoma = system: LOX IMVI melanoma
M14 melanoma = system: M14 melanoma
MALME-3M melanoma = system: MALME-3M melanoma
MCF7 breast = system: MCF7 breast
MDA-MB-231 breast = system: MDA-MB-231 breast
MDA-MB-435 = system: MDA-MB-435
MOLT-4 leukemia = system: MOLT-4 leukemia
NCI-H226 lung = system: NCI-H226 lung
NCI-H23 lung = system: NCI-H23 lung
NCI-H460 lung = system: NCI-H460 lung
NCI-H522 lung = system: NCI-H522 lung
NCI/ADR-RES ovarian = system: NCI/ADR-RES ovarian
OVCAR-3 ovarian = system: OVCAR-3 ovarian
OVCAR-4 ovarian = system: OVCAR-4 ovarian
OVCAR-5 ovarian = system: OVCAR-5 ovarian
OVCAR-8 ovarian = system: OVCAR-8 ovarian
PC-3 prostate = system: PC-3 prostate
RPMI-8226 leukemia = system: RPMI-8226 leukemia
RXF 393 renal = system: RXF 393 renal
SF-268 CNS = system: SF-268 CNS
SF-295 CNS = system: SF-295 CNS
SF-539 CNS = system: SF-539 CNS
SK-MEL-2 melanoma = system: SK-MEL-2 melanoma
SK-MEL-28 melanoma = system: SK-MEL-28 melanoma
SK-MEL-5 melanoma = system: SK-MEL-5 melanoma
SK-OV-3 ovarian = system: SK-OV-3 ovarian
SN12C renal = system: SN12C renal
SNB-19 CNS = system: SNB-19 CNS
SNB-75 CNS = system: SNB-75 CNS
SR leukemia = system: SR leukemia
SW-620 colon = system: SW-620 colon
T-47D breast = system: T-47D breast
TK-10 renal = system: TK-10 renal
U251 CNS = system: U251 CNS
UACC-257 melanoma = system: UACC-257 melanoma
UACC-62 melanoma = system: UACC-62 melanoma
UO-31 renal = system: UO-31 renal

CCCN(CCC)c1ccc(C=O)c(C)c1
> 61.9 µM: TGI (SK-MEL-5 melanoma)
64.7 µM: TGI (HOP-92 NSCLC)
98.9 µM: TGI (T-47D breast)
> 96.3 µM: TGI (UACC-257 melanoma)
> 84.4 µM: TGI (HL-60(TB) leukemia)
> 71.5 µM: TGI (NCI-H226 lung)
inactive: GI50 (786-0 renal) 43.9 µM | GI50 (A498 renal) 1.27 µM | GI50 (A549 NSCLC) 70.7 µM | GI50 (ACHN renal) 49.4 µM | GI50 (BT-549 breast) 26.9 µM | GI50 (CAKI-1 renal) 33.7 µM | GI50 (CCRF-CEM leukemia) 46.8 µM | GI50 (COLO 205 colon) 29.1 µM | GI50 (DU-145 prostate) 77.6 µM | GI50 (EKVX NSCLC) 24.2 µM | GI50 (HCC-2998 colon) 52.4 µM | GI50 (HCT-116 colon) 35 µM | GI50 (HCT-15 colon) 41.6 µM | GI50 (HL-60(TB) leukemia) 30.8 µM | GI50 (HOP-62 NSCLC) 98.1 µM | GI50 (HOP-92 NSCLC) 16.4 µM | GI50 (HS 578T breast) 39.7 µM | GI50 (HT29 colon) 33.5 µM | GI50 (IGROV1 ovarian) 61 µM | GI50 (K-562 leukemia) 68.7 µM | GI50 (KM12 colon) 44.7 µM | GI50 (LOX IMVI melanoma) 65 µM | GI50 (M14 melanoma) 44.8 µM | GI50 (MALME-3M melanoma) 43.8 µM | GI50 (MCF7 breast) 40.8 µM | GI50 (MDA-MB-231 breast) 41.3 µM | GI50 (MDA-MB-435) 32.6 µM | GI50 (MOLT-4 leukemia) 39.8 µM | GI50 (NCI-H226 lung) 11.3 µM | GI50 (NCI-H23 lung) 35.8 µM | GI50 (NCI-H460 lung) 46.5 µM | GI50 (NCI-H522 lung) 37.4 µM | GI50 (NCI/ADR-RES ovarian) 36.1 µM | GI50 (OVCAR-3 ovarian) 35.4 µM | GI50 (OVCAR-4 ovarian) 21.5 µM | GI50 (OVCAR-5 ovarian) 58.5 µM | GI50 (OVCAR-8 ovarian) 57.2 µM | GI50 (PC-3 prostate) 32.7 µM | GI50 (RPMI-8226 leukemia) 69.4 µM | GI50 (RXF 393 renal) 34.3 µM | GI50 (SF-268 CNS) 68 µM | GI50 (SF-295 CNS) 29.1 µM | GI50 (SF-539 CNS) > 70.5 µM | GI50 (SK-MEL-2 melanoma) 30.9 µM | GI50 (SK-MEL-28 melanoma) 68.2 µM | GI50 (SK-MEL-5 melanoma) 21.2 µM | GI50 (SK-OV-3 ovarian) > 100 µM | GI50 (SN12C renal) 56.7 µM | GI50 (SNB-19 CNS) 60.9 µM | GI50 (SNB-75 CNS) 22.3 µM | GI50 (SR leukemia) 40.3 µM | GI50 (SW-620 colon) 45.9 µM | GI50 (T-47D breast) 20.8 µM | GI50 (TK-10 renal) 41.6 µM | GI50 (U251 CNS) 38.5 µM | GI50 (UACC-257 melanoma) 19.2 µM | GI50 (UACC-62 melanoma) 28.4 µM | GI50 (UO-31 renal) 21.5 µM
> 100 µM: TGI (786-0 renal) | TGI (A549 NSCLC) | TGI (ACHN renal) | TGI (BT-549 breast) | TGI (CAKI-1 renal) | TGI (CCRF-CEM leukemia) | TGI (COLO 205 colon) | TGI (DU-145 prostate) | TGI (EKVX NSCLC) | TGI (HCC-2998 colon) | TGI (HCT-116 colon) | TGI (HCT-15 colon) | TGI (HOP-62 NSCLC) | TGI (HS 578T breast) | TGI (HT29 colon) | TGI (IGROV1 ovarian) | TGI (K-562 leukemia) | TGI (KM12 colon) | TGI (LOX IMVI melanoma) | TGI (M14 melanoma) | TGI (MALME-3M melanoma) | TGI (MCF7 breast) | TGI (MDA-MB-231 breast) | TGI (MDA-MB-435) | TGI (MOLT-4 leukemia) | TGI (NCI-H23 lung) | TGI (NCI-H460 lung) | TGI (NCI-H522 lung) | TGI (NCI/ADR-RES ovarian) | TGI (OVCAR-3 ovarian) | TGI (OVCAR-4 ovarian) | TGI (OVCAR-5 ovarian) | TGI (OVCAR-8 ovarian) | TGI (PC-3 prostate) | TGI (RPMI-8226 leukemia) | TGI (RXF 393 renal) | TGI (SF-268 CNS) | TGI (SF-295 CNS) | TGI (SF-539 CNS) | TGI (SK-MEL-2 melanoma) | TGI (SK-MEL-28 melanoma) | TGI (SK-OV-3 ovarian) | TGI (SN12C renal) | TGI (SNB-19 CNS) | TGI (SR leukemia) | TGI (SW-620 colon) | TGI (TK-10 renal) | TGI (U251 CNS) | TGI (UACC-62 melanoma) | TGI (UO-31 renal)
3.28 µM: TGI (A498 renal)
97.7 µM: TGI (SNB-75 CNS)
